Laboratory results reported in US20200246298A1, “Composition for Preventing or Treating Asthma Comprising Fatty Acid as Active Ingredient” (Dongshin University Industry-Academy Cooperation, priority 2019, published 2020).

Assays:
Format in all cases: in vivo, BALB/c mice
IL-12p40 = assay: ELISA analysis in lung tissue, OVA-induced asthma; settings: palmitic acid 5, 25, 50 mg/kg oral, particularly the 25 mg/kg group, FIG. 21
Procedure: (§1) In test groups, the animals determined to be healthy during the acclimation period were ranked by measuring the weight, and were randomly grouped so that the average weight of each group was uniform. The animals were divided into a total of 9 groups: a control group; a control group with OVA-induced asthma; a positive control group; groups administered with each of 50 mg/kg, 125 mg/kg and 250 mg/kg of oleic acid; and groups administered with each of 5 mg/kg, 25 mg/kg and 50 mg/kg of palmitic acid. The animals were sensitized via intraperitoneal injection of OVA once a week for 2 weeks after the acclimation period. During 5 days of week 3, dexamethasone (DEX) and the test substances oleic acid and palmitic acid were orally administered in the morning and 5% OVA solution was inhaled in the afternoon. The test substance was orally administered in an amount of 28 μL per weight (g) of the experimental animal, and OVA for sensitization was administered in a constant amount regardless of the weight. After 5 days of administration, autopsy was performed the next day. To analyze the levels of IFN-γ, IL-12p40, IL-4, IL-5, IL-6, and TNF-α in lung tissue, OptEIA mouse ELISAs were purchased from BD Biosciences. The IL-13 levels were assessed using the AbFrontier Cymax mouse FT ISA kit (AbFrontier, Seoul, Korea). All assays were performed according to the manufacturers' guidelines. All lung samples were prepared by a lysis buffer made with a protease inhibitor cocktail and an RIPA buffer (Thermo Fisher Scientific). Aliquots of lung tissue from all groups were weighed and homogenized with lysis buffer. They were then centrifuged at 8,200 rpm for 15 minutes, and the supernatants were harvested and measured using a microplate reader (EZ Read 400, Biochrom, Cambourne, UK).

IL-13 [1] = assay: ELISA analysis in lung tissue, OVA-induced asthma; settings: palmitic acid 5, 25, 50 mg/kg oral, particularly the 50 mg/kg group, FIG. 24
Procedure: as §1

IL-5 = assay: ELISA analysis in lung tissue, OVA-induced asthma; settings: palmitic acid 5, 25, 50 mg/kg oral, particularly the 5 mg/kg group, FIG. 23
Procedure: as §1

IL-6 [2] = assay: ELISA analysis in lung tissue, OVA-induced asthma; settings: palmitic acid 5, 25, 50 mg/kg oral, particularly the 50 mg/kg group
Procedure: as §1

IL-13 [3] = assay: RT-PCR analysis of lung, OVA-induced asthma; settings: palmitic acid 5, 25, 50 mg/kg oral, FIG. 27
Procedure: (§2) In test groups, the animals determined to be healthy during the acclimation period were ranked by measuring the weight, and were randomly grouped so that the average weight of each group was uniform. The animals were divided into a total of 9 groups: a control group; a control group with OVA-induced asthma; a positive control group; groups administered with each of 50 mg/kg, 125 mg/kg and 250 mg/kg of oleic acid; and groups administered with each of 5 mg/kg, 25 mg/kg and 50 mg/kg of palmitic acid. The animals were sensitized via intraperitoneal injection of OVA once a week for 2 weeks after the acclimation period. During 5 days of week 3, dexamethasone (DEX) and the test substances oleic acid and palmitic acid were orally administered in the morning and 5% OVA solution was inhaled in the afternoon. The test substance was orally administered in an amount of 28 μL per weight (g) of the experimental animal, and OVA for sensitization was administered in a constant amount regardless of the weight. After 5 days of administration, autopsy was performed the next day.
(§3) In order to evaluate changes in the cDNA levels of IFN-γ, IL-12p40, IL-4, IL-5, IL-13, TNF-α, and IL-6, which are related to asthma induction, RT-PCR analysis was performed as in a previous study protocol (Lee et al., 2017). Total RNA was extracted from the lung using the RNeasy Mini Kit (Qiagen, Hilden, Germany) according to the manufacturer's instructions. Total RNA (100 ng) was used as a template for the reaction.
(§4) The RT-PCR cycles consisted of denaturation at 95° C. for 5 sec and annealing/extension at 65° C. for 30 sec for 40 cycles. The results were obtained using an Axioscope A1 (Carl Zeiss, Gottingen, Germany).

IL-6 [4] = assay: RT-PCR analysis of lung, OVA-induced asthma; settings: palmitic acid 5, 25, 50 mg/kg oral, FIG. 27
Procedure: as §2, §3, §4

TNF-α = assay: RT-PCR analysis of lung, OVA-induced asthma; settings: palmitic acid 5, 25, 50 mg/kg oral, FIG. 27
Procedure: as §2, §3, §4

Structure (SMILES): CCCCCCCCCCCCCCCC(=O)O [palmitic acid]
- expression level of IL-12p40 (IL-12p40): decreased
- expression level of IL-13 (IL-13 [1]): decreased
- expression level of IL-5 (IL-5): decreased
- expression level of IL-6 (IL-6 [2]): decreased
- Th2-related cytokine IL-13 (cDNA level, RT-PCR) (IL-13 [3]): dose-dependently decreased
- Th17-related cytokine IL-6 (cDNA level, RT-PCR) (IL-6 [4]): dose-dependently decreased
- Th17-related cytokine TNF-α (cDNA level, RT-PCR) (TNF-α): dose-dependently decreased
